Assay results from patent US11142520B2, “LDHA activity inhibitors” (ARCTIC PHARMA AS, priority 2017, dated 2021).

What was measured:
[1] = target: T1, LDHA (Homo sapiens (Human), UniProt P00338); test: Coupled diaphorase assay, LDHA; type: biochemical; details: lactate to pyruvate direction, 4-7 nM LDHA
Source text: (§1) The inhibitory properties of the compounds were investigated using a coupled enzyme assay that links the lactate dehydrogenase (LDH) reaction to the production of fluorescent resorutin by diaphorase.
(§2) Human lactate dehydrogenases (LDH) catalyze the reversible interconversion between pyruvate and lactate. LDH is capable of catalyzing both the forward (pyruvate to lactate) and the reverse (lactate to pyruvate) reaction, using either NADH or NAD^+ as a cofactor. The reaction proceeds in either direction dependent on various factors, such as substrate availability, the presence of necessary cofactors, temperature and pH. Different isoforms (LDH A, B, and C) of the enzyme favor different reaction directions—LDHA prefers the conversion from pyruvate to lactate, whereas LDHB preferentially oxidizes lactate to pyruvate.
The coupled assay relies on the oxidation of NAD^+ to NADH throughout the conversion of lactate to pyruvate by LDH (isoforms A, B and C). The produced NADH serves as cofactor in the diaphorase reaction, which reduces non-fluorescent resazurin to fluorescent resorufin. Therefore, the assay indirectly monitors the rate of pyruvate production. Although the consumption of NADH can be directly monitored due to the intrinsic fluorescence of the molecule (excitation: 340 nm, emission: 460 nm) there are problems linked to the direct readout method. […] Shifting the assay to longer wavelengths by coupling the LDH reaction to the conversion of resazurin to fluorescent resorufin by diaphorase reduces this compound interference. The assay direction was thus chosen to provide a robust and reliable assay. […]
Compounds were tested in duplicates using 2-fold, 3-fold or 4-fold serial dilutions including 11 individual concentrations, starting from 5000 μM to 30 μM. […] The controls allowed for the calculation of the percentage inhibition for each data point. […] Enzyme solution leading to final concentrations of 4-7 nM LDHA or 6 nM LDHB, as well as 0.2 U/ml diaphorase in the reaction well was dispensed into 384-well plates (Greiner bio-one) using a CyBi®-SELMA robotic pipettor. Compound dilutions and the enzyme were incubated for at least 20 min at room temperature. […] The reaction was quenched by the addition of a stop solution (final concentrations: 20 mM EDTA, 400 mM NaCl, 40 mM pyruvate). Fluorescence was read out after 5 min of incubation at an excitation wavelength of 560 nm and an emission wavelength of 590 nm on a Perkin Elmer Victor X plate reader. […]
(§3) Fluorescence data was normalized to DMSO and inhibition controls resulting in percentage inhibition for every compound concentration. Dose response curves were fitted in KaleidaGraph (www.synergy.com) or Dotmatics software package (www.dotmatics.com) using a standard 4-parameter fit (Levenberg-Marquardt fitting procedure), resulting in IC50 values for the test compounds.

[2] = target: T1, LDHA; test: Isothermal titration calorimetry (ITC); type: binding; details: 25° C., NADH 1 mM
Procedure: ITC experiments were performed using a MicorCal PEAQ ITC instrument. Prior to the experiments, LDHA was dialyzed against 50 mM potassium phosphate buffer pH 7.4, 150 mM NaCl, 0.002% pluronic acid F-127 at 4° C. overnight using mini dialysis kits from GE Healthcare. The tested compounds were dissolved to 100 mM in DMSO. After dialysis, the protein was centrifuged at 14,000 rpm at 4° C. for 30 min. Buffer and MilliQ water for the reference cell were degassed prior to use. Protein concentration was determined by A280 nm measurements using a Nanodrop. All ITC experiments were conducted at 25° C. with stirring at 750 rpm. In a typical experiment the compound of interest was loaded into the sample cell at 20 μM and LDHA (200 μM in syringe) was titrated to the compound solution in consecutive injections. NADH (1 mM) and DMSO concentrations (2%) were matched in all solutions. Data were analyzed using the MicroCal PEAQ-ITC analysis software and fitted to a single site binding model, resulting in binding constant Kd, enthalpy ΔH, entropy ΔS and the stoichiometry N.

[3] = target: LDHB (Homo sapiens (Human), UniProt P07195); test: Coupled diaphorase assay, LDHB; type: biochemical; details: lactate to pyruvate direction, 6 nM LDHB
Chain of LDHB (P07195 whole entry): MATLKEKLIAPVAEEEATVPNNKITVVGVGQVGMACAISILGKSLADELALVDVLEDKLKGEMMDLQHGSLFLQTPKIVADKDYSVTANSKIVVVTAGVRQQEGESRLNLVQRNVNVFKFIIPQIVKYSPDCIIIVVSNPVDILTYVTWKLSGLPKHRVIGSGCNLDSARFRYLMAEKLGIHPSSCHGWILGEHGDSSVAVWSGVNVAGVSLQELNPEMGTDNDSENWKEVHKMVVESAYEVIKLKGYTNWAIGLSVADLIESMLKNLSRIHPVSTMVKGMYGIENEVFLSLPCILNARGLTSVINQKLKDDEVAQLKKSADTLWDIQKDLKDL
Source text: as §1, §2
The coupled assay relies on the oxidation of NAD^+ to NADH throughout the conversion of lactate to pyruvate by LDH (isoforms A, B and C). The produced NADH serves as cofactor in the diaphorase reaction, which reduces non-fluorescent resazurin to fluorescent resorufin. Therefore, the assay indirectly monitors the rate of pyruvate production. Although the consumption of NADH can be directly monitored due to the intrinsic fluorescence of the molecule (excitation: 340 nm, emission: 460 nm) there are problems linked to the direct readout method. […] Shifting the assay to longer wavelengths by coupling the LDH reaction to the conversion of resazurin to fluorescent resorufin by diaphorase reduces this compound interference. The assay direction was thus chosen to provide a robust and reliable assay.
Applying the LDHA reaction in the preferred direction for the conversion of pyruvate to lactate under oxidation of NADH to NAD^+ would necessitate running the LDHA reaction to about 80% completion and adding the diaphorase assay reagents afterwards in order to avoid enzyme competition for NADH.
The controls allowed for the calculation of the percentage inhibition for each data point. […] Enzyme solution leading to final concentrations of 4-7 nM LDHA or 6 nM LDHB, as well as 0.2 U/ml diaphorase in the reaction well was dispensed into 384-well plates (Greiner bio-one) using a CyBi®-SELMA robotic pipettor. Compound dilutions and the enzyme were incubated for at least 20 min at room temperature. […] The reaction was quenched by the addition of a stop solution (final concentrations: 20 mM EDTA, 400 mM NaCl, 40 mM pyruvate). Fluorescence was read out after 5 min of incubation at an excitation wavelength of 560 nm and an emission wavelength of 590 nm on a Perkin Elmer Victor X plate reader. […]
as §3

[4] = test system: MIA PaCa-2 human pancreatic cells; details: MIA PaCa-2 cells; cited from earlier work
[5] = test system: LDH; details: in vitro; cited from earlier work

O=C1CC(c2ccc(N3CCOCC3)cc2)(c2ccsc2)NC(=O)C1Sc1cc(Cl)ccc1Cl (racemic) [Example 10, 3-((2,5-dichlorophenyl)thio)-6-(4-morpholinophenyl)-6-(thiophen-3-yl)piperidine-2,4-dione]
IC50 [1]: 0.1 to 0.5 µM | -TΔS [2]: 3.95 kJ/mol | Kd [2]: 0.0432 µM | N (stoichiometry) [2]: 0.796 | ΔH [2]: -46 kJ/mol

O=C1CC(c2ccsc2)(c2cccc(OCC3CCCC3)n2)NC(=O)C1Sc1ccc(F)cc1Cl (centres unmarked) [Example 3, 3-[(2-chloro-4-fluorophenyl)sulfanyl]-6-[6-(cyclopentylmethoxy)pyridin-2-yl]-6-(thiophen-3-yl)piperidine-2,4-dione]
IC50 [1]: 0.5 to 10 µM | IC50 [3]: > 100 µM | -TΔS [2]: 21.4 kJ/mol | Kd [2]: 0.373 µM | N (stoichiometry) [2]: 0.721 | ΔH [2]: -15.4 kJ/mol

O=C1CC(c2ccsc2)(c2cccc(OCC3CCCC3)n2)NC(=O)C1Sc1cc(Cl)ccc1Cl (centres unmarked) [Example 5, 6-[6-(cyclopentylmethoxy)pyridin-2-yl]-3-[(2,5-dichlorophenyl)sulfanyl]-6-(thiophen-3-yl)piperidine-2,4-dione]
IC50 [1]: 0.1 to 0.5 µM | -TΔS [2]: 17 kJ/mol | Kd [2]: 0.671 µM | N (stoichiometry) [2]: 0.548 | ΔH [2]: -18.2 kJ/mol

CC(=O)OC1=C(Sc2ccc(F)cc2Cl)C(=O)NC(c2ccsc2)(c2cccc(OCC3CCCC3)n2)C1 (centres unmarked) [Example 13, 5-((2-chloro-4-fluorophenyl)thio)-6′-(cyclopentylmethoxy)-6-oxo-2-(thiophen-3-yl)-1,2,3,6-tetrahydro-[2,2′-bipyridin]-4-yl acetate]
IC50 [1]: > 100 µM | IC50 [3]: > 100 µM

CCCOC(=O)OC1=C(Sc2ccc(F)cc2Cl)C(=O)NC(c2ccc(N3CCOCC3)cc2)(c2ccsc2)C1 (centres unmarked) [Example 14, 5-((2-chloro-4-fluorophenyl)thio)-2-(4-morpholinophenyl)-6-oxo-2-(thiophen-3-yl)-1,2,3,6-tetrahydropyridin-4-yl propyl carbonate]
IC50 [1]: 50 to 100 µM | IC50 [3]: 50 to 100 µM

CCOC(=O)OC1=C(Sc2cccc(Cl)c2Cl)C(=O)NC(c2ccc(N3CCOCC3)cc2)(c2ccsc2)C1 (centres unmarked) [Example 15, 5-((2,3-dichlorophcnyl)thio)-2-(4-morpholinophenyI)-6-oxo-2-(thiophcn-3-yl)-1,2,3,6-tetrahydropyridin-4-yl ethyl carbonate]
IC50 [1]: 50 to 100 µM | IC50 [3]: > 100 µM

O=C1CC(c2ccsc2)(c2ccccn2)OC(=O)C1Sc1ccccc1Cl (centres unmarked) [Example 20, 3-((2-chlorophenyl)thio)-6-(pyridin-2-yl)-6-(thiophen-3-yl)dihydro-2H-pyran-2,4(3H)-dione]
IC50 [1]: 0.5 to 10 µM | IC50 [3]: 0.5 to 10 µM

COCCOC(=O)OC1=C(Sc2ccc(Cl)cc2Cl)C(=O)NC(c2ccsc2)(c2cccc(OCC3CCCC3)n2)C1 (centres unmarked) [Example 22, 6′-(cyclopentylmethoxy)-5-((2,4-dichlorophenyl)thio)-6-oxo-2-(thiophen-3-yl)-1,2,3,6-tetrahydro-[2,2′-bipyridin]-4-yl (2-methoxyethyl) carbonate]
IC50 [1]: > 100 µM | IC50 [3]: > 100 µM

O=C1CC(c2cnc(N3CCOCC3)nc2)(c2ccsc2)OC(=O)C1Sc1ccccc1Cl (centres unmarked) [Example 23, 3-((2-chlorophenyl)thio)-6-(2-morpholinopyrimidin-5-yl)-6-(thiophen-3-yl)dihydro-2H-pyran-2,4(3H)-dione]
IC50 [1]: 0.5 to 10 µM | IC50 [3]: 0.5 to 10 µM

O=C1CC(c2ccc(N3CCOCC3)cc2)(c2ccsc2)NC(=O)C1Sc1ccccc1Cl (centres unmarked) [Example 24, 3-((2-chlorophenyl)thio)-6-(4-morpholinophenyl)-6-(thiophen-3-yl)piperidine-2,4-dione]
time of continuous LDHA inhibition until cell death occurred [4]: ≥ 2 days

O=C1CC(c2ccc(N3CCOCC3)cc2)(c2ccsc2)NC(=O)C1Sc1ccc(Cl)cc1Cl (centres unmarked) [Example 29, 3-((2,4-dichlorophenyl)thio)-6-(4-morpholinophenyl)-6-(thiophen-3-yl)piperidine-2,4-dione]
IC50 [1]: 50 to 100 µM | IC50 [3]: > 100 µM

COCCOC(=O)OC1=C(Sc2ccc(Cl)cc2Cl)C(=O)NC(c2ccc(N3CCOCC3)cc2)(c2ccsc2)C1 (centres unmarked) [Example 30, 5-((2,4-dichlorophenyl)thio)-2-(4-morpholinophenyl)-6-oxo-2-(thiophen-3-yl)-1,2,3,6-tetrahydropyridin-4-yl (2-methoxyethyl) carbonate]
IC50 [1]: > 100 µM | IC50 [3]: > 100 µM

CC(C)COC(=O)OC1=C(Sc2ccc(F)cc2Cl)C(=O)NC(c2ccc(N3CCOCC3)cc2)(c2ccsc2)C1 (centres unmarked) [Example 32, 5-((2-chloro-4-fluorophenyl)thio)-2-(4-morpholinophenyl)-6-oxo-2-(thiophen-3-yl)-1,2,3,6-tetrahydropyridin-4-yl iso-butyl carbonate]
IC50 [1]: > 100 µM | IC50 [3]: > 100 µM

COCCOC(=O)OC1=C(Sc2ccc(F)cc2Cl)C(=O)NC(c2ccc(N3CCOCC3)cc2)(c2ccsc2)C1 (centres unmarked) [Example 33, 5-((2-chloro-4-fluorophenyl)thio)-2-(4-morpholinophenyl)-6-oxo-2-(thiophen-3-yl)-1,2,3,6-tetrahydropyridin-4-yl (2-methoxyethyl) carbonate]
IC50 [1]: 0.5 to 10 µM | IC50 [3]: > 100 µM

NC(=O)C(=O)O [Oxamate]
concentration range that inhibits LDH enzyme activity [5]: mM range
